Test results taken from PubChem BioAssay AID1259411 (Chemical Carcinogenesis Research Information System (CCRIS), 2018).
Active and inactive are the calls of the source. The rule behind the calls is not given here.

System: rodent carcinogenicity bioassays, tumor incidence
Experiment: CCRIS carcinogenicity studies
Source text: The CCRIS database contains chemical records with carcinogenicity, mutagenicity, tumor promotion, and tumor inhibition test results. It was developed by the National Cancer Institute (NCI). Data are derived from studies cited in primary journals, current awareness tools, NCI reports, and other sources. Test results have been reviewed by experts in carcinogenesis and mutagenesis.
CCRIS provides historical information from the years 1985 - 2011. It is no longer updated.
This is an archive assay for CCRIS carcinogenicity studies.

How did the carcinogen call (Species: Mouse, Strain/Sex: CD-1/Female (32/Group), Route: Oral, Dose: 0, 0.1, 0.5, 10, 30 ppm of 95.4% fipronil in diet for 78 wks, study duration 78 wks, Dose: 0, 0.1, 0.5, 10, 30 ppm of 95.4% fipronil in diet for 78 wks, study duration 78 wks) turn out when `N#Cc1nn(-c2c(Cl)cc(C(F)(F)F)cc2Cl)c(N)c1S(=O)C(F)(F)F` (stereo unspecified) was run?
Its carcinogen call is “inactive; negative”.

What about the carcinogen call (Species: Mouse, Strain/Sex: CD-1/Male (32/Group), Route: Oral, Dose: 0, 0.1, 0.5, 10, 30 ppm of 95.4% fipronil in diet for 78 wks, study duration 78 wks, Dose: 0, 0.1, 0.5, 10, 30 ppm of 95.4% fipronil in diet for 78 wks, study duration 78 wks, Tumor Site: Type of Lesion: Liver: malignant hepatocellular tumors at highest dose) of the same compound?
The carcinogen call was “active; positive”.

What about the carcinogen call (Species: Rat, Strain/Sex: CD/Female (50/Group), Route: Oral, Dose: 0, 0.5, 1.5, 30, 300 ppm of 95.4% fipronil in diet for 89-91 wks, study duration 104 wks, Dose: 0, 0.5, 1.5, 30, 300 ppm of 95.4% fipronil in diet for 89-91 wks, study duration 104 wks, Tumor Site: Type of Lesion: Thyroid: follicular cell adenoma and carcinoma at highest dose) of the same compound?
Its carcinogen call is “active; positive”.

What about the carcinogen call (Species: Rat, Strain/Sex: CD/Male (50/Group), Route: Oral, Dose: 0, 0.5, 1.5, 30, 300 ppm of 95.4% fipronil in diet for 89-91 wks, study duration 104 wks, Dose: 0, 0.5, 1.5, 30, 300 ppm of 95.4% fipronil in diet for 89-91 wks, study duration 104 wks, Tumor Site: Type of Lesion: Thyroid: follicular cell adenoma and carcinoma at highest dose) of the same compound?
Its carcinogen call is “active; positive”.

How did the carcinogen call (Species: RAT, Strain/Sex: F344/F, Route: GAVAGE, Dose: 0, 37.5, 75 MG/KG IN CORN OIL 5D/WK FOR 103 WK (STUDY DURATION: 106 WK), Dose: 0, 37.5, 75 MG/KG IN CORN OIL 5D/WK FOR 103 WK (STUDY DURATION: 106 WK)) turn out when `COc1c2occc2cc2ccc(=O)oc12` was run?
The carcinogen call was “inactive; negative”.

And the carcinogen call (Species: RAT, Strain/Sex: F344/M, Route: GAVAGE, Dose: 0, 37.5, 75 MG/KG IN CORN OIL 5D/WK FOR 103 WK (STUDY DURATION: 106 WK), Dose: 0, 37.5, 75 MG/KG IN CORN OIL 5D/WK FOR 103 WK (STUDY DURATION: 106 WK), Tumor Site: Type of Lesion: SUBCUTANEOUS TISSUE: FIBROMA, SUBCUTANEOUS TISSUE: FIBROMA OR SARCOMA, LUNG: ALVEOLAR/BRONCHIOLAR ADENOMA, KIDNEY: TUBUL, Tumor Site: Type of Lesion: SUBCUTANEOUS TISSUE: FIBROMA, SUBCUTANEOUS TISSUE: FIBROMA OR SARCOMA, LUNG: ALVEOLAR/BRONCHIOLAR ADENOMA, KIDNEY: TUBUL)?
The carcinogen call was “active; positive”.

How did the carcinogen call (Species: MOUSE (NEWBORN), Strain/Sex: CD-1/MALE,FEMALE, Route: SUBCUTANEOUS, Dose: 333 MG/KG IN 1% GEL SOLN WITHIN 24 HR OF BIRTH, Tumor Site: Type of Lesion: LUNG: ADENOMA, ADENOCARCINOMA, LIVER: ADENOMA) turn out when `CCCCN(N=O)C(N)=O` was run?
Its carcinogen call is “active; positive”.

What about the carcinogen call (Species: RAT, Strain/Sex: F344/FEMALE, Route: GAVAGE, Dose: 0, 15 MG/ML (TOTAL DOSE 0; 1.7 MMOL) IN 2 ML ETHYL ACETATE AND CORN OIL (1:2) 2/WK FOR 40 WK (STUDY DURATION: LIFETIME), Dose: 0, 15 MG/ML (TOTAL DOSE 0; 1.7 MMOL) IN 2 ML ETHYL ACETATE AND CORN OIL (1:2) 2/WK FOR 40 WK (STUDY DURATION: LIFETIME), Tumor Site: Type of Lesion: FORESTOMACH: SQUAMOUS CELL CARCINOMA, LUNG: TUMOR, MAMMARY GLAND: TUMOR, UTERUS: TUMOR, Tumor Site: Type of Lesion: FORESTOMACH: SQUAMOUS CELL CARCINOMA, LUNG: TUMOR, MAMMARY GLAND: TUMOR, UTERUS: TUMOR) of the same compound?
The carcinogen call was “active; positive”.

And the carcinogen call (Species: RAT, Strain/Sex: F344/FEMALE, Route: GAVAGE, Dose: 0, 15 MG/ML IN 0.2 ML ETHYL ACETATE AND CORN OIL 2/WK FOR 40 WK (STUDY DURATION: LIFESPAN), Tumor Site: Type of Lesion: FORESTOMACH: TUMOR, LUNG: TUMOR, MAMMARY GLAND: TUMOR, UTERUS: TUMOR, Tumor Site: Type of Lesion: FORESTOMACH: TUMOR, LUNG: TUMOR, MAMMARY GLAND: TUMOR, UTERUS: TUMOR)?
The carcinogen call was “active; positive”.

And the carcinogen call (Species: RAT, Strain/Sex: F344/MALE, Route: GAVAGE, Dose: 0, 15 MG/ML (TOTAL DOSE 0; 1.7 MMOL) IN 2 ML ETHYL ACETATE AND CORN OIL (1:2) 2/WK FOR 40 WK (STUDY DURATION: LIFETIME), Dose: 0, 15 MG/ML (TOTAL DOSE 0; 1.7 MMOL) IN 2 ML ETHYL ACETATE AND CORN OIL (1:2) 2/WK FOR 40 WK (STUDY DURATION: LIFETIME), Tumor Site: Type of Lesion: FORESTOMACH: SQUAMOUS CELL CARCINOMA, LUNG: TUMOR)?
Its carcinogen call is “active; positive”.

What about the carcinogen call (Species: RAT, Strain/Sex: F344/MALE, Route: GAVAGE, Dose: 0, 15 MG/ML IN 0.2 ML ETHYL ACETATE AND CORN OIL 2/WK FOR 40 WK (STUDY DURATION: LIFESPAN), Tumor Site: Type of Lesion: FORESTOMACH: TUMOR, LUNG: TUMOR) of the same compound?
The carcinogen call was “active; positive”.

What does the source list for `CN(C)c1ccc(C(=O)c2ccc(N(C)C)cc2)cc1`?
carcinogen call (Species: MOUSE, Strain/Sex: B6C3F1/FEMALE, Route: ORAL, Dose: 0, 1250, 2500 PPM IN DIET, Dose: 0, 1250, 2500 PPM IN DIET, Tumor Site: Type of Lesion: LIVER: HEPATOCELLULAR ADENOMA OR CARCINOMA): active; positive; carcinogen call (Species: MOUSE, Strain/Sex: B6C3F1/MALE, Route: ORAL, Dose: 0, 1250, 2500 PPM IN DIET, Dose: 0, 1250, 2500 PPM IN DIET, Tumor Site: Type of Lesion: INTEGUMENTARY SYSTEM (SUBCUTANEOUS TISSUE): HEMANGIOSARCOMA OR HEMANGIOMA): active; positive; carcinogen call (Species: RAT, Strain/Sex: F344/FEMALE, Route: ORAL, Dose: 0, 500, 1000 PPM IN DIET, Dose: 0, 500, 1000 PPM IN DIET, Tumor Site: Type of Lesion: LIVER: HEPATOCELLULAR CARCINOMA OR NEOPLASTIC NODULE): active; positive; carcinogen call (Species: RAT, Strain/Sex: F344/MALE, Route: ORAL, Dose: 0, 250, 500 PPM IN DIET, Dose: 0, 250, 500 PPM IN DIET, Tumor Site: Type of Lesion: LIVER: HEPATOCELLULAR CARCINOMA OR NEOPLASTIC NODULE): active; positive

How did the carcinogen call (Species: MOUSE, Strain/Sex: ICR/FEMALE, Route: DERMAL, Dose: 0, 1 MG IN 0.1 ML DISTILLED WATER 2/WK FOR A MEAN TOTAL DOSE OF 132.6 MG (STUDY DURATION: 18 MO)) turn out when `O=C1OC2(c3ccccc31)c1ccc(O)c(I)c1Oc1c2ccc(O)c1I` was run?
The carcinogen call was “inactive; negative”.

What about the carcinogen call (Species: MOUSE, Strain/Sex: ICR/MALE, Route: DERMAL, Dose: 0, 1 MG IN 0.1 ML DISTILLED WATER 2/WK FOR A MEAN TOTAL DOSE OF 132.6 MG (STUDY DURATION: 18 MO)) of the same compound?
The carcinogen call was “inactive; negative”.

With `Cc1ccnc2ccccc12` as the compound, how does the carcinogen call (Species: MOUSE, Strain/Sex: CD-1/FEMALE, Route: INTRAPERITONEAL, Dose: 0, 0.25, 0.5, 1.0 UMOL IN DMSO TO NEWBORN MICE ON DAYS 1, 8 AND 15 OF LIFE RESPECTIVELY (TOTAL DOSE: 1.75 UMOL) (STUDY D, Dose: 0, 0.25, 0.5, 1.0 UMOL IN DMSO TO NEWBORN MICE ON DAYS 1, 8 AND 15 OF LIFE RESPECTIVELY (TOTAL DOSE: 1.75 UMOL) (STUDY D) read?
The carcinogen call was “inactive; negative”.

What about the carcinogen call (Species: MOUSE, Strain/Sex: CD-1/MALE, Route: INTRAPERITONEAL, Dose: 0, 0.25, 0.5, 1.0 UMOL IN DMSO TO NEWBORN MICE ON DAY 1,8 AND 15 OF LIFE RESPECTIVELY (TOTAL DOSE: 1.75 UMOL) (STUDY DUR, Dose: 0, 0.25, 0.5, 1.0 UMOL IN DMSO TO NEWBORN MICE ON DAY 1,8 AND 15 OF LIFE RESPECTIVELY (TOTAL DOSE: 1.75 UMOL) (STUDY DUR, Tumor Site: Type of Lesion: LIVER: ADENOMA, HEPATOMA) of the same compound?
The carcinogen call was “active; positive”.

What about the carcinogen call (Species: RAT, Strain/Sex: SPRAGUE-DAWLEY/FEMALE, Route: SUBCUTANEOUS, Dose: 0, 200 UMOL/KG INTO SUPRASCAPULAR REGION ON DAY 1 OF LIFE FOLLOWED BY 0, 100 UMOL 1/WK AT WK 2-7 THEN 0, 200 UMOL ONCE A, Dose: 0, 200 UMOL/KG INTO SUPRASCAPULAR REGION ON DAY 1 OF LIFE FOLLOWED BY 0, 100 UMOL 1/WK AT WK 2-7 THEN 0, 200 UMOL ONCE A) of the same compound?
The carcinogen call was “inactive; negative”.

What about the carcinogen call (Species: RAT, Strain/Sex: SPRAGUE-DAWLEY/MALE, Route: SUBCUTANEOUS, Dose: 0, 200 UMOL/KG INTO SUPRASCAPULAR REGION ON DAY 1 OF LIFE FOLLOWED BY 0, 100 UMOL 1/WK AT WK 2-7 THEN 0, 200 UMOL ONCE A, Dose: 0, 200 UMOL/KG INTO SUPRASCAPULAR REGION ON DAY 1 OF LIFE FOLLOWED BY 0, 100 UMOL 1/WK AT WK 2-7 THEN 0, 200 UMOL ONCE A) of the same compound?
Its carcinogen call is “inactive; negative”.
